We go through 1 compound from patent US9675627B2, “Dosing regimens for treating and/or preventing cerebral amyloidoses” (Amicus Therapeutics, Inc., priority 2014, dated 2017).

One series concerns the target T1, β-galactosidase (β-Gal) (Homo sapiens, UniProt P16278).
T1 construct: wild-type fibroblast (CRL2076) pellets (˜2.5e6 cells/pellet) were lysed; host or cells: wild-type fibroblasts CRL2076, lysate
T1 sequence (P16278 29-677): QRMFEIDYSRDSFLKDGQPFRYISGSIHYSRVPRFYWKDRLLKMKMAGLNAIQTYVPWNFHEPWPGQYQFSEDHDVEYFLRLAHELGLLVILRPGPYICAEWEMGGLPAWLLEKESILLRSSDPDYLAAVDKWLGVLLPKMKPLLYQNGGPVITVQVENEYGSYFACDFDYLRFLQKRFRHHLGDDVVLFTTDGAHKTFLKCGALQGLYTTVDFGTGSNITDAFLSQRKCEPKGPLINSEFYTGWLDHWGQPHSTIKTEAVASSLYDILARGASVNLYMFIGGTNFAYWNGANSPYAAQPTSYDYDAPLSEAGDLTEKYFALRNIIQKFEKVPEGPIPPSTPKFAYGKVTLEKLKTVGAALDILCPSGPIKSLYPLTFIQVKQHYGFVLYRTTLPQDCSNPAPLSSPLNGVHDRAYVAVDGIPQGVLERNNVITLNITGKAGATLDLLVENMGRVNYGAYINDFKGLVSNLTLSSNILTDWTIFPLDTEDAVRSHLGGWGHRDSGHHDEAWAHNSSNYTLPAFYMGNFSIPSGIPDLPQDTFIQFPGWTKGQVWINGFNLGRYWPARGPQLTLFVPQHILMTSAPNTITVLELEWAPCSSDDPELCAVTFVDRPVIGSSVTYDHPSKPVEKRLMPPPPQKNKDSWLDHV
Kind of series: Selectivity: beta-galactosidase activity in fibroblast lysate. Particulars: 10 μM, the highest concentration tested. In kind it is biochemical. The text has this:
Enzymatic activity measurements were done in duplicate.

The nature of series [1]: Single dose pharmacokinetic study (oral gavage), plasma and brain LC-MS/MS. In kind it is in vivo, C57BL/J6 mice. The method, then: (§1) 5-week-old C57BL/J6 mice (n=5 mice/group, Taconic Farms, Germantown, N.Y.) were administered vehicle (water) or AdDNJ (30, 100 or 300 mg/kg) via oral gavage every day for 14 days. On day 15 mice were euthanized and brain/plasma collected for analysis. For single dose PK studies, 5-week-old C57BL/J6 mice (n=5 mice/group, Taconic Farms, Germantown, N.Y.) received a single 100 mg/kg dose (oral gavage) of AdDNJ and groups euthanized at 0.5, 1, 2, 4, 8, 16, 24 and 48 hours post dose for brain and plasma analysis. Whole brain tissue (10-15 mg) was homogenized in 1 mL of pH 5 lysis buffer for measuring beta-hexosaminidase activity as described above. AdDNJ levels were measured in plasma and brain samples using LC-MS/MS.

For a further series, the system named is β-hex. On the procedure: AdDNJ selectivity was assessed by measuring its effect on the enzymatic activity of hexosaminadase (Total Hex, Hex A/S and Hex B), and 3 other lysosomal hydrolases: alpha-galactosidase, beta-galactosidase and glucocerebrosidase. For enzymatic assays, wild-type fibroblast (CRL2076) pellets (˜2.5e6 cells/pellet) were lysed with 200 μl of pH 5 lysis buffer (Phosphate/citrate, 0.25% tauorocholate, 0.1% TX100). Fibroblast lysates were diluted 1:200 in pH 5 reaction buffer (lysis buffer without TX100) containing 2 mM of the appropriate 4-methylumbelliferyl (4-MU) substrate, incubated for 1 h at 37° C. and stopped with 0.5 M sodium carbonate. Released 4MU was measured using a Perkin Elmer Victor 5× fluorescence plate reader (ex355/em460). Measurement of Total Hex activity was carried out using 4-methylumbelliferyl beta-N-acetylglucosaminide (MUG); for Hex A/S activity 4MU-beta-N-acetylglucosamine-6-sulfate (MUGS); Hex B activity was calculated as the difference between Total Hex and Hex A/S activity; for alpha-galactosidase activity […]; for beta-galactosidase activity 4-MU beta-D-galactoside; for glucocerebrosidase activity 4MU beta-D-glucopyranoside. As positive controls for enzymatic inhibition 100 μM of the following compounds were used: for alpha-galactosidase, 1-deoxygalactonojirimycin; for beta-galactosidase, N-Butyl-1-deoxygalactonojirimycin; for glucocerebrosidase, isofagamine. For beta-hexosaminadase enhancement assays, fibroblasts were exposed to 0, 95, 390 and 780 nM of AdDNJ for 5 days followed by beta-hexosamindase activity measurement. Enzymatic activity measurements were done in duplicate.
as §1

The mark [2] stands for this setting: daily gavage 14 days at 30, 100 and 300 mg/kg.

As to `CC(=O)NC1CNC(CO)[C@@H](O)C1O` (stereo partly drawn) [AdDNJ, 2-acetamido-1,2-dideoxynojirimycin], the “inhibition of β-galactosidase (β-Gal)” value against β-galactosidase (β-Gal) is listed as “did not inhibit”. Moreover, the bioavailability result in series [1] (qualitative statement) is on record as “good bioavailability”. Also, the “AdDNJ level reached in brain” value in series [1] (single 100 mg/kg dose) is above 342 nM. Also, in series [1] (single 100 mg/kg oral gavage), the “blood brain barrier penetration” value is given as “crossed the BBB” and the “time for brain level to drop below Ki for β-hex at pH 5 (253 nM)” value is recorded as at most 16 hours. Moreover, in the series on β-hex (daily gavage 30, 100, 300 mg/kg), the “time of maximum increase in β-hex levels” value is given as around 5 days. In the series on β-hex (setting [2]), the “GM2 levels in whole brain extracts” value is listed as “without increasing GM2 levels” and the “brain β-hex levels” value is “dose-dependent increase”. Moreover, in the series with β-hex (data not shown), the “half-life of elevated β-hex levels in the brain” value is around 48 h.
